According to the NIST ThermoML archive (doi:10.1016/j.jct.2012.09.012):

Test: molar heat capacity at constant pressure; xn = mol fraction of the nth substance listed
Conditions: 101 kPa, Liquid, Small sample (50 mg) DSC

CC1=CC[C@H]2C[C@@H]1C2(C)C [(S)-2-pinene] + C=C1CCC2CC1C2(C)C
molar heat capacity at constant pressure [J/K/mol]
Conditions | x1 = 0.1002 | x1 = 0.2041 | x1 = 0.2997 | x1 = 0.3922 | x1 = 0.5012 | x1 = 0.5907 | x1 = 0.7026 | x1 = 0.7987 | x1 = 0.9002 | x1 = 1
313.16 K | 249.31 | 250.67 | 250.67 | 252.03 | 250.67 | 249.31 | 250.67 | 252.03 | 253.4 | 250.67
318.16 K | 252.03 | 252.03 | 252.03 | 253.4 | 253.4 | 252.03 | 253.4 | 253.4 | 254.76 | 252.03
323.16 K | 256.12 | 254.76 | 256.12 | 256.12 | 254.76 | 254.76 | 256.12 | 254.76 | 256.12 | 256.12
328.22 K | 257.48 | 256.12 | 257.48 | 258.84 | 256.12 | 257.48 | 258.84 | 256.12 | 258.84 | 257.48
333.22 K | 260.21 | 258.84 | 258.84 | 260.21 | 258.84 | 261.57 | 260.21 | 257.48 | 260.21 | 260.21
338.19 K | 264.29 | 261.57 | 262.93 | 262.93 | 262.93 | 262.93 | 262.93 | 261.57 | 262.93 | 264.29
343.18 K | 267.02 | 265.66 | 267.02 | 265.66 | 265.66 | 267.02 | 264.29 | 264.29 | 265.66 | 267.02
348.15 K | 269.74 | 268.38 | 269.74 | 268.38 | 269.74 | 268.38 | 267.02 | 267.02 | 268.38 | 269.74
353.18 K | 273.83 | 272.47 | 272.47 | 271.11 | 272.47 | 272.47 | 269.74 | 269.74 | 269.74 | 272.47
358.15 K | 275.19 | 273.83 | 273.83 | 273.83 | 275.19 | 275.19 | 272.47 | 271.11 | 272.47 | 275.19
363.18 K | 277.92 | 276.56 | 276.56 | 276.56 | 277.92 | 277.92 | 273.83 | 275.19 | 275.19 | 277.92
368.17 K | 279.28 | 279.28 | 279.28 | 279.28 | 280.64 | 280.64 | 276.56 | 276.56 | 277.92 | 279.28
373.21 K | 283.37 | 282 | 282 | 282 | 282 | 282 | 279.28 | 280.64 | 279.28 | 282
378.2 K | 284.73 | 283.37 | 284.73 | 284.73 | 284.73 | 284.73 | 280.64 | 282 | 282 | 284.73
383.17 K | 287.45 | 286.09 | 287.45 | 287.45 | 286.09 | 287.45 | 284.73 | 283.37 | 284.73 | 287.45
388.2 K | 291.54 | 288.82 | 290.18 | 291.54 | 290.18 | 290.18 | 288.82 | 286.09 | 287.45 | 291.54
393.17 K | 292.9 | 291.54 | 292.9 | 294.27 | 292.9 | 291.54 | 291.54 | 288.82 | 288.82 | 292.9
398.2 K | 294.27 | 295.63 | 294.27 | 296.99 | 295.63 | 294.27 | 294.27 | 292.9 | 292.9 | 294.27
403.19 K | 296.99 | 298.35 | 296.99 | 299.71 | 298.35 | 296.99 | 295.63 | 295.63 | 294.27 | 296.99
408.16 K | 299.71 | 301.08 | 299.71 | 303.8 | 302.44 | 299.71 | 299.71 | 298.35 | 296.99 | 299.71
413.19 K | 301.08 | 302.44 | 301.08 | 305.16 | 305.16 | 301.08 | 301.08 | 299.71 | 299.71 | 301.08
418.19 K | 303.8 | 305.16 | 303.8 | 306.53 | 306.53 | 302.44 | 303.8 | 303.8 | 302.44 | 303.8
